A short description of test [1]: Inhibition of trypsin like activity of partially purified rat liver proteasome by spectrofluorimetry. It is filed as subcellular.
Test [2] is described as follows: Inhibition of chymotrypsin-like activity of purified 20S proteasome from human erythrocyte.
Test [3] can be described thus: Inhibition of chymotrypsin like activity of partially purified rat liver proteasome by spectrofluorimetry. In kind it is subcellular.
The test system of test [4] is HeLa. The test is described as follows: Cytotoxicity against human HeLa cells after 3 days by MTT assay. In kind it is functional, cell-based. The conditions noted are these: 72 h. Background: Tetrazolium assays rely on reduction of a dye to a coloured formazan, in cell work by metabolically active cells.
Test [5] in a line: Inhibition of caspase like activity of partially purified rat liver proteasome by spectrofluorimetry. In kind it is subcellular.
A short description of test [6]: Inhibition of caspase-like activity of 20S proteasome in human erythrocyte by spectrofluorimetry.

≈ marks a conversion by molar mass, not a printed value.

Regarding `COc1cc2ccnc3c2c(c1OC)NC=C3` [AAPTAMINE], the IC50 in test [1] stood at 18 µg/mL (≈ 78.9 µM); in test [2] it was 4.3 µg/mL (≈ 18.8 µM); in test [3], 1.6 µg/mL (≈ 7.01 µM); in test [4] it was 15 µg/mL (≈ 65.7 µM); in test [5], 2.7 µg/mL (≈ 11.8 µM); in test [6], 4.6 µg/mL (≈ 20.2 µM).
Take `COc1cc2ccnc3c2c(c1O)N(C)C=C3` [ISOAAPTAMINE]: the IC50 in test [1] amounted to 10 µg/mL (≈ 43.8 µM); in test [2], 1.7 µg/mL (≈ 7.45 µM); in test [3], 2.1 µg/mL (≈ 9.2 µM); in test [4] it was 3.1 µg/mL (≈ 13.6 µM); in test [5], 2.4 µg/mL (≈ 10.5 µM); in test [6], 1.7 µg/mL (≈ 7.45 µM).

The term IC50 denotes the concentration at which inhibition is half-maximal. A lower IC50 goes with higher potency.

The values are drawn from ChEMBL document CHEMBL1155490, “Aaptamine, an alkaloid from the sponge Aaptos suberitoides, functions as a proteasome inhibitor” (Bioorg Med Chem Lett, 2010).
